Source: US10065990B2, “Cyclic peptide compound, and preparation method, pharmaceutical composition and use thereof” (HANGZHOU GUANYU BIO-MEDICAL CO., LTD, priority 2013, dated 2018)
Like-named read-outs stand apart in the source and are kept apart here.

Experiments:
[1] = test system: Bel-7402 (human hepatoma cells); assay: MTT cancer cell growth inhibition; assay type: cell-based; details: MTT, 72 hours incubation, Bel-7402 cells, read-out: GI50 Bel-7402
Text: (§1) MTT assay principle is yellow MTT can penetrate membrane into the cell, succinic dehydrogenase of the mitochondria in living cells can make exogenous MTT reduction of insoluble in water of blue-violet acicular formazan for crystallization and deposition in the cell, crystallization can be dissolved dimethyl sulfoxide (DMSO) solution, detected its absorbance at 490 nm/570 nm wavelength by enzyme-linked immunosorbent assay, which can reflect the number of cells.
(§2) Using DMEM+10% FBS culture medium or using 1640+10% FBS culture, respectively.
(§3) a) Cells were seeded in 96-well plates with the inoculation of 1500/well, 190 μl/hole, 37° C., 5% of CO2 incubator overnight;
(§4) b) The next day each well was added 10 μl of different drugs. The final concentration of drug was 10^−5˜10^−10M, three parallel holes; 37° C., 5% CO2 culture incubator for 72 hours incubation;
(§5) c) Per well was added 20 μl 5 mg/ml of MTT, 37° C., 5% CO2 culture incubator for 4 hours incubation;
(§6) d) The supernatant was discarded. Each well was added 100 μl of DMSO and oscillation;
(§7) e) 570 nm readings. Calculate cell viability. GI50 calculation based on the results.

[2] = test system: H1975 (non-small cell lung adenocarcinoma); assay: MTT cancer cell growth inhibition; assay type: cell-based; details: MTT, 72 hours incubation, H1975 cells, read-out: GI50 H1975
Text: as §1, §2, §3, §4, §5, §6, §7

[3] = test system: HCC827 (human non-small cell lung cancer cells); assay: MTT cancer cell growth inhibition; assay type: cell-based; details: MTT, 72 hours incubation, HCC827 cells, read-out: GI50 HCC827
Text: as §1, §2, §3, §4, §5, §6, §7

[4] = test system: Huh-7 (human hepatoma cells); assay: MTT cancer cell growth inhibition; assay type: cell-based; details: MTT, 72 hours incubation, Huh-7 cells, read-out: GI50 Huh-7
Text: as §1, §2, §3, §4, §5, §6, §7

[5] = test system: K562 (human leukemia cells); assay: MTT cancer cell growth inhibition; assay type: cell-based; details: MTT, 72 hours incubation, K562 cells, read-out: GI50 K562
Text: as §1, §2, §3, §4, §5, §6, §7

[6] = test system: KBM-5 (human chronic myelogenous leukemia); assay: MTT cancer cell growth inhibition; assay type: cell-based; details: MTT, 72 hours incubation, KBM-5 cells, read-out: GI50 KBM-5
Text: as §1, §2, §3, §4, §5, §6, §7

[7] = test system: KBM5-T315I (human chronic myelogenous leukemia); assay: MTT cancer cell growth inhibition; assay type: cell-based; details: MTT, 72 hours incubation, KBM5-T315I cells, read-out: GI50 KBM5-T315I
Text: as §1, §2, §3, §4, §5, §6, §7

[8] = test system: MDA-MB-231 (breast cancer cells); assay: MTT cancer cell growth inhibition; assay type: cell-based
Text: as §1, §2, §3, §4, §5, §6, §7

[9] = test system: N-87 (human gastric cancer cells); assay: MTT cancer cell growth inhibition; assay type: cell-based; details: MTT, 72 hours incubation, N-87 cells, read-out: GI50 N-87
Text: as §1, §2, §3, §4, §5, §6, §7

[10] = test system: SGC-7901 (human gastric cancer cells); assay: MTT cancer cell growth inhibition; assay type: cell-based; details: MTT, 72 hours incubation, SGC-7901 cells, read-out: GI50 SGC-7901
Text: as §1, §2, §3, §4, §5, §6, §7

HDAC7 = molecular target: T1, HDAC7 (Homo sapiens, UniProt Q8WUI4); assay: HDAC biochemical activity measurement (fluorescent substrate deacetylation);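 further: fluorogenic deacetylation assay using acetyl-lysine substrate at 20 µM, enzyme and compound incubated 30 min at 37 °C, then developer added, fluorescence read at 360/460 nm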; details: HDAC7; 37° C. 30 minutes
T1 sequence (Q8WUI4 1-952): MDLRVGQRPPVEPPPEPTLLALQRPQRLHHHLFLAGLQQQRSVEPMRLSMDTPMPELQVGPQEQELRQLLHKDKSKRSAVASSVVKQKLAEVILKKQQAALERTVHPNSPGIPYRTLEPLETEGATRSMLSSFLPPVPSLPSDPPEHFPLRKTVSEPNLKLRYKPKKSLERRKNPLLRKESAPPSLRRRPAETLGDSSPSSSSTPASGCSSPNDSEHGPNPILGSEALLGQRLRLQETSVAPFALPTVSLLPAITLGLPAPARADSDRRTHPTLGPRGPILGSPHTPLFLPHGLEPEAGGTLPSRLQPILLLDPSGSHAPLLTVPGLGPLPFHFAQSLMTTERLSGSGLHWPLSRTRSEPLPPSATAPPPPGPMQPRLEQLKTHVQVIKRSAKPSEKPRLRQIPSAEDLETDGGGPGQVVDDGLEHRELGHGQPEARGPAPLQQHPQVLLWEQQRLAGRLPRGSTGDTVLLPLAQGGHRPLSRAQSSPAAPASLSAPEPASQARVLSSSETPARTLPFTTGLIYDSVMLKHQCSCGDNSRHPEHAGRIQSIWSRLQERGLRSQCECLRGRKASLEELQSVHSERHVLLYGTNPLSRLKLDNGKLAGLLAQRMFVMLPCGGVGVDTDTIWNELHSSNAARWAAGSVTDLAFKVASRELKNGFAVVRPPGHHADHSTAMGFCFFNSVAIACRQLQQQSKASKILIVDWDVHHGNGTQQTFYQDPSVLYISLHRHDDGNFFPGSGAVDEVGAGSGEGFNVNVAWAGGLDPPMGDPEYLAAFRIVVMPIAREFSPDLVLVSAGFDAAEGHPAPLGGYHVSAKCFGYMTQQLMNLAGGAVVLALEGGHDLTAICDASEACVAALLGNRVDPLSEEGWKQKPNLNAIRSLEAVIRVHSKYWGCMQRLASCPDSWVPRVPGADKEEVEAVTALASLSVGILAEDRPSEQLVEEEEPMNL

[11] = test system: A549 (human lung cancer cells); assay: MTT cancer cell growth inhibition; assay type: cell-based; details: MTT, 72 hours incubation, read-out: GI50 A54
Text: as §1, §2, §3, §4, §5, §6, §7

[12] = test system: BGC-823 (human gastric cancer cells); assay: MTT cancer cell growth inhibition; assay type: cell-based; details: MTT, 72 hours incubation, read-out: GI50 BG
Text: as §1, §2, §3, §4, §5, §6, §7

[13] = test system: DU145 (human prostate cancer cells); assay: MTT cancer cell growth inhibition; assay type: cell-based; details: MTT, 72 hours incubation, read-out: GI50 Du1
Text: as §1, §2, §3, §4, §5, §6, §7

[14] = test system: HT1080 (human fibrosarcoma cells); assay: MTT cancer cell growth inhibition; assay type: cell-based; details: MTT, 72 hours incubation, read-out: GI50 HT1
Text: as §1, §2, §3, §4, §5, §6, §7

[15] = test system: Hela (human cervical cancer cells); assay: MTT cancer cell growth inhibition; assay type: cell-based; details: MTT, 72 hours incubation, read-out: GI50 Hela
Text: as §1, §2, §3, §4, §5, §6, §7

[16] = test system: MCF-7 (human breast cancer cells); assay: MTT cancer cell growth inhibition; assay type: cell-based; details: 72 hours incubation, read-out: GI50 MCF
Text: as §1, §2, §3, §4, §5, §6, §7

[17] = test system: MOLT-4 (human acute lymphoblastic leukemia cells); assay: MTT cancer cell growth inhibition; assay type: cell-based; details: MTT, 72 hours incubation, read-out: GI50 Mol
Text: as §1, §2, §3, §4, §5, §6, §7

[18] = test system: PANC-1 (Pac-1, human pancreatic cancer cells); assay: MTT cancer cell growth inhibition; assay type: cell-based; details: MTT, 72 hours incubation, read-out: GI50 PAN
Text: as §1, §2, §3, §4, §5, §6, §7

[19] = test system: U937 (human leukemia cells); assay: MTT cancer cell growth inhibition; assay type: cell-based; details: MTT, 72 hours incubation, read-out: GI50 U93
Text: as §1, §2, §3, §4, §5, §6, §7

[20] = test system: lncap (prostate cancer cells); assay: MTT cancer cell growth inhibition; assay type: cell-based; details: MTT, 72 hours incubation, read-out: GI50 lnca
Text: as §1, §2, §3, §4, §5, §6, §7

[21] = Homo sapiens, MDA-MB-231, 72 h, read-out: GI50 MDA-MB-231, MTT, 72 hours incubation, MDA-MB-231 cells

Row | Structure (SMILES) | IC50 HDAC7 (HDAC7) | GI50 [11] [µM] | GI50 [12] [µM] | GI50 ([1]; Homo sapiens, Bel-7402, 72 h) [µM] | GI50 [13] [µM] | GI50 ([2]; Homo sapiens, NCI-H1975, 72 h) [µM] | GI50 ([3]; Homo sapiens, HCC827, 72 h) [µM] | GI50 [14] [µM] | GI50 [15] [µM] | GI50 ([4]; Homo sapiens, Huh-7, 72 h) [µM] | GI50 ([5]; Homo sapiens, K562, 72 h) [µM] | GI50 ([6]; Homo sapiens, KBM5, 72 h) [µM] | GI50 ([7]; Homo sapiens, 72 h) [µM] | GI50 [16] [µM] | GI50 [8, 21] [µM] | GI50 [17] [µM] | GI50 [18] [µM] | GI50 ([10]; Homo sapiens, SGC-7901, 72 h) [µM] | GI50 [19] [µM] | GI50 [20] [µM] | also measured
1 | C/C=C1\NC(=O)c2nc(ccc2F)CNC(=O)C[C@@H](/C=C/CCSC(C)=O)OC(=O)[C@H](CC)NC1=O [Example 57] |  |  |  |  |  |  |  |  |  |  |  |  |  |  |  |  |  |  |  |  | GI50 [1]: 0.073 µM; GI50 [2]: 0.055 µM; GI50 [3]: 0.073 µM; GI50 [4]: 0.028 µM; GI50 [5]: 0.035 µM; GI50 [6]: 0.074 µM; GI50 [7]: 0.054 µM; GI50 ([8]; read-out: GI50 MDA-MB-231, MTT, 72 hours incubation, MDA-MB-231 cells): 0.028 µM; GI50 [9]: 0.053 µM; GI50 [10]: 0.092 µM
2 | C/C=C1\NC(=O)c2nc(ccc2F)CNC(=O)C[C@@H](/C=C/CCSC(C)=O)OC(=O)[C@H](C(C)C)NC1=O [Compound 93] | no activity | 0.06 | 0.02 | 0.034 | 0.03 | 0.027 | 0.034 | 0.03 | 0.05 | 0.038 | 0.037 | 0.053 | 0.034 | 0.03 | 0.038 | 0.03 | 0.03 | 0.068 | 0.02 | 0.03 | 
3 | C/C=C1\NC(=O)c2ccc(F)c(n2)CNC(=O)C[C@@H](/C=C/CCSC(C)=O)OC(=O)[C@H](C(C)C)NC1=O (single isomer, unassigned) [Example 50] | no activity | 0.03 | 0.06 |  | 0.04 |  |  | 0.08 | 0.07 |  |  |  |  | 0.06 |  | 0.02 | 0.08 |  | 0.03 | 0.02 | 
4 | C/C=C1\NC(=O)c2ccc(F)c(n2)CNC(=O)C[C@@H](/C=C/CCSC(C)=O)OC(=O)[C@H](C(C)C)NC1=O [Compound 95] | no activity |  | 0.02 | 0.083 |  | 0.035 | 0.083 |  |  | 0.022 | 0.026 | 0.076 | 0.038 |  | 0.022 |  |  | 0.042 |  |  | GI50 ([11]; Homo sapiens, A549, 72 h): 0.04 µM; GI50 ([13]; Homo sapiens, DU-145, 72 h): 0.02 µM; GI50 ([14]; Homo sapiens, HT-1080, 72 h): 0.08 µM; GI50 ([15]; Homo sapiens, HeLa, 72 h): 0.07 µM; GI50 ([16]; Homo sapiens, MCF7, 72 h): 0.03 µM; GI50 ([17]; Homo sapiens, MOLT-4, 72 h): 0.02 µM; GI50 ([18]; Homo sapiens, PANC-1, 72 h): 0.08 µM; GI50 ([19]; Homo sapiens, U-937, 72 h): 0.03 µM; GI50 ([20]; Homo sapiens, LNCaP, 72 h): 0.02 µM
5 | C/C=C1\NC(=O)c2cc(F)cc(n2)CNC(=O)C[C@@H](/C=C/CCS)OC(=O)[C@H](CC)NC1=O [Compound 110] | no activity |  |  | 0.062 |  | 0.059 | 0.062 |  |  | 0.048 | 0.017 | 0.041 | 0.029 |  | 0.013 |  |  | 0.057 |  |  | GI50 ([11]; Homo sapiens, A549, 72 h): 0.06 µM; GI50 ([12]; Homo sapiens, BGC-823, 72 h): 0.03 µM; GI50 ([13]; Homo sapiens, DU-145, 72 h): 0.05 µM; GI50 ([14]; Homo sapiens, HT-1080, 72 h): 0.07 µM; GI50 ([15]; Homo sapiens, HeLa, 72 h): 0.06 µM; GI50 ([16]; Homo sapiens, MCF7, 72 h): 0.03 µM; GI50 ([17]; Homo sapiens, MOLT-4, 72 h): 0.03 µM; GI50 ([9]; Homo sapiens, 72 h): 0.035 µM; GI50 ([19]; Homo sapiens, U-937, 72 h): 0.06 µM; GI50 ([20]; Homo sapiens, LNCaP, 72 h): 0.03 µM
